Source: patent US20230339877A1, “Synthesis and Composition of Neurolenin D Mesylate and Related Compounds - New Drugs for the Treatment of Parasitic Nematode Infections in Humans, Animals and Plants” (Smith College, priority 2022, published 2023)
Counter-ions that a name gives are not always drawn.

Tests used:
[1] = test system: adult female Brugia pahangi parasites (BP AF); assay: Killing of adult female Brugia pahangi parasites (BP AF) in culture; format: cell-based
Protocol: The drug was applied at 1, 2 and 3 parts per million (ppm) and was 100% effective at killing the parasites at all three concentrations. Even at 1 ppm, all parasites were killed within 90 hours after treatment. The control treatment is with 1, 2 and 3 ppm ethanol given to the parasites in culture under the same conditions. One adult female parasite treated with 1 ppm ethanol died at about 80 hours. This death is not experimentally significant as occasionally a parasite dies in culture without any drug treatment.

[2] = test system: adult male Brugia pahangi parasites (BP AM); assay: Killing of adult male Brugia pahangi parasites (BP AM) in culture; format: cell-based
Protocol: The drug was applied at 1, 2 and 3 parts per million (ppm) and was 100% effective at killing the parasites at all three concentrations. Even at 1 ppm, all parasites were killed within 120 hours after treatment. The control treatment is with 1, 2 and 3 ppm ethanol given to the parasites in culture under the same conditions. One adult male parasite treated with 1 ppm ethanol died at about 40 hours. This death is not experimentally significant as occasionally a parasite dies in culture without any drug treatment.

[3] = test system: microfilariae (larvae); assay: Killing of microfilariae (larvae) produced following mating of adult parasites; format: cell-based, Brugia pahangi; details: repeated experiments
Text: 100% of all adult male and female parasites are always killed upon treatment with NDM.

[4] = Biological activity assays for toxicity and mutagenicity; details: preliminary data
[5] = repeated in many separate trials

## C=C1C(=O)O[C@@H]2C[C@H](C)/C=C\C(=O)[C@](C)(O)[C@@H](OS(C)(=O)=O)[C@@H](OC(=O)CC(C)C)[C@@H]12 [NDM, Neurolenin D Mesylate]
[1]; adult female BP in culture, 1 ppm
  time after treatment by which all parasites were killed: ≤ 90 h
[1]; adult female BP in culture, drug applied at 1, 2 and 3 ppm, all three concentrations, FIG. 1
  effective at killing the parasites: 100%
[1]; adult female BP, FIG. 1, at the endpoint 100% of worms killed
  speed of killing compared with other neurolenin derivatives: more slowly
[1]; [5]
  adult female parasites killed upon treatment: 100%
[2]; adult male BP in culture, 1 ppm
  time after treatment by which all parasites were killed: ≤ 120 h
[2]; adult male BP in culture, drug applied at 1, 2 and 3 ppm, all three concentrations, FIG. 2
  effective at killing the parasites: 100%
[2]; adult male BP, FIG. 2, at the endpoint 100% of worms killed
  speed of killing compared with other neurolenin derivatives: more slowly
[2]; [5]
  adult male parasites killed upon treatment: 100%
[3]
  microfilariae (larvae) killed: 100%
[4]
  mutagenicity: not toxic or mutagenic
  toxicity: not toxic
